# Results published in patent publication US20240300945A1, “CLY SERIES COMPOUND, PREPARATION METHOD THEREFOR AND USE THEREOF IN PREPARATION OF DRUGS” (NANJING WELLBEST PHARMACEUTICAL CO., LTD, priority 2021, published 2024).
# Columns and labels:
# acute GVHD mice = test: Mouse model of acute graft-versus-host disease; type: in vivo, BALB/c mice; conditions: 5 mg/kg/d intravenously; for pathological changes of liver: 2 weeks after transplantation, hematoxylin-eosin; for clinical symptom score (GVHD): 11th day after transplantation, acute GVHD group 7.48±0.77; for survival rate of mice: Kaplan-Meier, three weeks after transplantation, acute GVHD group 12.13%
# Description: Preparation of bone marrow cells: the donor mice were sacrificed by cervical dislocation, soaked in 75% ethanol for 5 minutes, and the two femurs and tibia of the mice were taken out under sterile conditions in the ultra-clean table, and placed in RPMI1640 medium containing 2% fetal bovine serum. Rinsed the bone marrow cavity with RPMI1640 culture medium, took out the bone marrow cells, blew them into the bone marrow suspension with sterile washing tube, filtered them with a 200 mesh filter, centrifuged for 10 min at 1500 r/min, collected the cell precipitates, and added physiological saline for resuspension. In addition, took a small amount of cell suspension and counted the number of nucleated cells after removing the red blood cells from the red blood cell lysate. And adjusted the concentration of nucleated cells in bone marrow suspension to 5×1010 L-1.
# Preparation of spleen mononuclear cells: cut the spleen envelope aseptically, put it on a 200-mesh filter screen, soaked it in RPMI1640 medium containing 2% fetal bovine serum by volume, gently grinded the spleen with the handle of a sterile syringe, washed the filter screen several times with the culture medium, collected the filtered spleen cell suspension, centrifuged it at 1500 r/min for 10 min, and collected the spleen cell precipitation. After PBS resuspension, it was blown into a single cell suspension, gently placed on the upper layer of mouse spleen lymphocyte separation solution, centrifuged at 1800 r/min for 20 min, and white membrane cells were collected. PBS was washed twice. After cell count, the cell density was adjusted to 5×1010 L-1, and put in a 4° C. refrigerator for use.
# C57BL/6 mice were used as bone marrow transplantation donors and BABL/c mice as recipients. BABL/c mice were randomly divided into the control group, model group, and CLY treatment group (each group was injected with 5 mg/kg/d compound CLY-1, CLY-2, or CLY-8 intravenously) according to the number of body weight, with 6 mice in each group. One week before transplantation, BALB/c mice were fed sterile acidified water containing 200 mg/L gentamicin, and mice were given 8.5 Gy whole-body irradiation (cesium source) within 24 hours before transplantation. Model group and CLY-1 group, CLY-2 group, and CLY-8 group were injected with C57BL/6 mouse bone marrow nucleated cells (including cell 1×107) and spleen mononuclear cells (including cell 5×106) 0.5 mL of mixed solution was used to establish acute GVHD model in mice, and 0.5 mL of normal saline was infused into the tail vein of BABL/c mice in the control group. CLY-1 group, CLY-2 group, and CLY-8 group were injected with CLY compound solution of 5 mg/kg/d intravenously, and the other groups were injected with saline of 5 mg/kg/d.
# 1.3.1 GVHD symptom score of mice: observed the general conditions of mice every day after transplantation, including body mass, fur, posture, activity, diarrhea, and mental state, and determined whether the mice had acute GVHD. According to the clinical GVHD symptom scoring standard, the clinical GVHD symptoms of mice in each group were scored 11 days after transplantation.
# 1.3.2 Analysis of mouse survival time: collected the survival data of mice in each group three weeks after transplantation, drew the survival curve by the Kaplan-Meier method, and compared the differences between the survival rates of mice in each group by Log-rank analysis method.
# 1.3.3 Histopathological examination: two weeks after transplantation, three mice with GVHD were taken from each group, and the back skin tissue, liver, and small intestine tissue were taken. 40 g/L paraformaldehyde was fixed, paraffin was fixed and embedded, hematoxylin-eosin staining was performed, and the pathological changes of each tissue were observed under the light microscope.
# [1] = test system: skin hair follicles and sebaceous glands of rats; test: Rat hair loss model: histopathological grading of skin hair follicles and sebaceous glands; type: in vivo, Wistar rats; conditions: 60 days, 10 rats per group; for number of rats with hair follicle and sebaceous gland grade +++: grade +++ (most severe); for number of rats with hair follicle and sebaceous gland grade ±: grade ± (lesions limited); for number of rats with hair follicle and sebaceous gland grade −: grade − (normal structure)
# Source text: Wistar rats were, according to weights, randomly divided into the negative control group (75% ethanol for external use), model group (75% ethanol for external use), positive control group (external 5% minoxidil tincture), CLY-1 external treatment group (external 5% CLY-1 tincture), CLY-2 external treatment group (external 5% CLY-2 tincture), CLY-3 external treatment group (external 5% CLY-3 tincture), CLY-4 external treatment group (external 5% CLY-4 tincture), and CLY-5 external treatment group (external 5% CLY-5 tincture) according to their body weight CLY-8 external treatment group (external 5% CLY-8 tincture), CLY-11 external treatment group (external 5% CLY-11 tincture), CLY-19 external treatment group (external 5% CLY-19 tincture), CLY-36 external treatment group (external 5% CLY-36 tincture), CLY-39 external treatment group (external 5% CLY-39 tincture), CLY-1 intravenous injection group (2 mg/kg·d), CLY-3 intravenous injection group (2 mg/kg·d), CLY-4 intravenous injection group (2 mg/kg·d) CLY-5 intravenous injection group (2 mg/kg·d), CLY-8 intravenous injection group (2 mg/kg·d), CLY-11 intravenous injection group (2 mg/kg·d), CLY-19 intravenous injection group (2 mg/kg·d), CLY-36 intravenous injection group (2 mg/kg·d), and CLY-39 intravenous injection group (2 mg/kg·d), with 10 rats in each group. Before the experiment, an area of 4 cm×5 cm was selected on each rat on the back of the neck to remove hair as the observation area. In addition to the negative control group, rats were subcutaneously injected with testosterone propionate injection [5 ml/(kg·d)] once a day for 60 days to establish the androgenic alopecia (AGA) model. […] At the same time, the drug was applied to the observation area on the back of the rats in the corresponding drug group at the rate of 2 mL/(one time), twice a day, at an interval of 8 hours; Intravenous administration once a day. The negative control group and the model control group were smeared with 75% ethanol solution, 2 mL/(one rat per time), twice a day, for 60 days.
# Took 10 hairs from the observation area on the back of each rat every 15 days after administration, and measured the hair length with a vernier caliper. After 60 days of administration, the skin of the experimental observation area was taken for routine tissue dehydration, paraffin embedding, HE staining, and light microscopy to observe the histopathological changes of the rat skin hair follicles and sebaceous glands. Semi-quantitative analysis was performed for each group. The grading criteria are as follows: the normal structure of dermal tissue cells, subcutaneous hair follicles, and sebaceous glands is marked as […]: no hyperplasia of dermal tissue is found, the lesions of hair follicles and sebaceous glands are limited, and no inflammation is found under the skin is marked as “+”: no obvious hyperplasia of dermal tissue is found, and the follicles are obviously cystic. No obvious hyperplasia of sebaceous glands is found, and no inflammation is found under the skin is marked as “+”: the dermal tissue has segmental hyperplasia, which is not obvious, A small number of hair follicles have cystic changes, and the sebaceous glands have mild hyperplasia and hypertrophy. There is no obvious inflammation under the skin, which is marked as “++”: the dermal tissue cells of the skin have different degrees of segmental hyperplasia, and some hair follicles have cystic changes, showing uneven size of hair follicles, and no cells around. The sebaceous glands have hyperplasia, and the nuclei in the proliferative glands are few. A few rats have mild inflammatory hyperplasia under the skin, which is marked as “+++”.
Compound,pathological changes of liver (acute GVHD mice),clinical symptom score (GVHD) (acute GVHD mice),survival rate of mice (acute GVHD mice) [%],number of rats with hair follicle and sebaceous gland grade +++ ([1]; external 5% tincture),number of rats with hair follicle and sebaceous gland grade +++ ([1]; intravenous 2 mg/kg·d),number of rats with hair follicle and sebaceous gland grade ++ ([1]; external 5% tincture),number of rats with hair follicle and sebaceous gland grade ++ ([1]; intravenous 2 mg/kg·d),number of rats with hair follicle and sebaceous gland grade + ([1]; external 5% tincture),number of rats with hair follicle and sebaceous gland grade + ([1]; intravenous 2 mg/kg·d),number of rats with hair follicle and sebaceous gland grade ± ([1]; external 5% tincture),number of rats with hair follicle and sebaceous gland grade ± ([1]; intravenous 2 mg/kg·d),number of rats with hair follicle and sebaceous gland grade − ([1]; external 5% tincture),number of rats with hair follicle and sebaceous gland grade − ([1]; intravenous 2 mg/kg·d)
"CN1CCC[C@@H](N(C(=O)c2ccc(-n3nnc4cccnc43)cc2)c2ncccc2Cl)C1 [CLY-1, (R)-4-(3H-[1,2,3]triazolo[4,5-b]pyridin-3-yl)-N-(3-chloropyridin-2-yl)-N-(1-methylpiperidin-3-yl)benzamide]",only small necrotic lesions,5.28±0.53,61.26,0,0,1,0,4,4,5,6,0,0
"CCN1CCC[C@@H](N(C(=O)c2ccc(-n3nnc4cccnc43)cc2)c2ncccc2Cl)C1 [CLY-2, (R)-4-(3H-[1,2,3]triazolo[4,5-b]pyridin-3-yl)-N-(3-chloropyridin-2-yl)-N-(1-ethylpiperidin-3-yl)benzamide]",only small necrotic lesions,4.68±0.42,58.79,0,0,1,0,3,3,6,7,0,0
"O=C(c1ccc(-n2nnc3cccnc32)cc1)N(c1ncccc1Cl)[C@@H]1CCNC1 [CLY-8, (R)-4-(3H-[1,2,3]triazolo[4,5-b]pyridin-3-yl)-N-(3-chloropyridin-2-yl)-N-(pyrrolidin-3-yl)benzamide]",only small necrotic lesions,4.56±0.39,63.48,0,0,0,0,3,2,7,8,0,0
O=C(c1ccc(-c2ccccc2Cl)cc1)N(c1ncccc1Cl)[C@@H]1CCCNC1 [CLY-36],,,,0,0,3,3,2,1,5,6,0,0
Nc1ccccc1-c1ccc(C(=O)N(c2ncccc2Cl)[C@@H]2CCCNC2)cc1 [CLY-39],,,,0,0,1,1,3,2,6,7,0,0
"Nc1cc(N2CCCCC2)nc(N)[n+]1[O-] [Positive control group, minoxidil, reference compound]",,,,1,,3,,4,,2,,0,
